Laboratory results: ChEMBL document CHEMBL4828722, “The synthesis and bioactivity of pyrrolo[2,3-d]pyrimidine derivatives as tyrosine kinase inhibitors for NSCLC cells with EGFR mutations” (Eur J Med Chem, 2021)
Calls of active or inactive are those of the source. The calls are words filed in the database; no cut-off is given here.

Tests used:
A549 [1] = assay: Induction of cell cycle arrest in human A549 cells harboring wild type EGFR assessed as accumulation of cells in G2/M phase at 0.5 uM measured after 18 hrs by PI/RNaseA staining based flow cytometry analysis (Rvb= 8.47%); type: functional
NCI-H1975 [2] = assay: Induction of apoptosis in human NCI-H1975 cells harboring EGFR L858R/T790M mutant assessed as total apoptotic cells at 5 uM measured after 18 hrs by Annexin V-FITC/PI staining based flow cytometry analysis (Rvb= 9.2%); type: functional
HCC827 [3] = assay: Induction of cell cycle arrest in human HCC827 cells harboring EGFR del E746-A750 mutant assessed as accumulation of cells in G2/M phase at 0.5 uM measured after 18 hrs by PI/RNaseA staining based flow cytometry analysis (Rvb= 16.78%); type: functional
NCI-H1975 [4] = assay: Induction of cell cycle arrest in human NCI-H1975 cells harboring EGFR L858R/T790M mutant assessed as accumulation of cells in S phase at 1 uM measured after 18 hrs by PI/RNaseA staining based flow cytometry analysis (Rvb= 39.78%); type: functional
A549 [5] = assay: Induction of cell cycle arrest in human A549 cells harboring wild type EGFR assessed as accumulation of cells in S phase at 1 uM measured after 18 hrs by PI/RNaseA staining based flow cytometry analysis (Rvb= 33.26%); type: functional
HCC827 [6] = assay: Induction of cell cycle arrest in human HCC827 cells harboring EGFR del E746-A750 mutant assessed as accumulation of cells in G0/G1 phase at 5 uM measured after 18 hrs by PI/RNaseA staining based flow cytometry analysis (Rvb= 49.60%); type: functional
NCI-H1975 [7] = assay: Induction of apoptosis in human NCI-H1975 cells harboring EGFR L858R/T790M mutant assessed as live cells at 5 uM measured after 18 hrs by Annexin V-FITC/PI staining based flow cytometry analysis (Rvb= 89.4%); type: functional
NCI-H1975 [8] = assay: Induction of cell cycle arrest in human NCI-H1975 cells harboring EGFR L858R/T790M mutant assessed as accumulation of cells in G2/M phase at 0.5 uM measured after 18 hrs by PI/RNaseA staining based flow cytometry analysis (Rvb= 17.33%); type: functional
NCI-H1975 [9] = assay: Induction of apoptosis in human NCI-H1975 cells harboring EGFR L858R/T790M mutant assessed as total apoptotic cells at 0.5 uM measured after 18 hrs by Annexin V-FITC/PI staining based flow cytometry analysis (Rvb= 9.2%); type: functional
HCC827 [10] = assay: Induction of cell cycle arrest in human HCC827 cells harboring EGFR del E746-A750 mutant assessed as accumulation of cells in S phase at 0.5 uM measured after 18 hrs by PI/RNaseA staining based flow cytometry analysis (Rvb= 33.62%); type: functional
HCC827 [11] = assay: Induction of apoptosis in human HCC827 cells harboring EGFR del E746-A750 mutant assessed as late apoptotic cells at 0.5 uM measured after 18 hrs by Annexin V-FITC/PI staining based flow cytometry analysis (Rvb= 1.2%); type: functional
HCC827 [12] = assay: Induction of apoptosis in human HCC827 cells harboring EGFR del E746-A750 mutant assessed as late apoptotic cells at 5 uM measured after 18 hrs by Annexin V-FITC/PI staining based flow cytometry analysis (Rvb= 1.2%); type: functional
NCI-H1975 [13] = assay: Induction of apoptosis in human NCI-H1975 cells harboring EGFR L858R/T790M mutant assessed as dead cells at 0.5 uM measured after 18 hrs by Annexin V-FITC/PI staining based flow cytometry analysis (Rvb= […]); type: functional
HBE = assay: Inhibition of AKT/S6 phosphorylation […] in human HBE cells at 5 uM incubated for 2 hrs by immunoblotting analysis; type: cell-based
A549 [14] = assay: Induction of cell cycle arrest in human A549 cells harboring wild type EGFR assessed as accumulation of cells in S phase at 5 uM measured after 18 hrs by PI/RNaseA staining based flow cytometry analysis (Rvb= 33.26%); type: functional
HCC827 [15] = assay: Induction of apoptosis in human HCC827 cells harboring EGFR del E746-A750 mutant assessed as live cells at 5 uM measured after 18 hrs by Annexin V-FITC/PI staining based flow cytometry analysis (Rvb= 87.5%); type: functional
NCI-H1975 [16] = assay: Induction of apoptosis in human NCI-H1975 cells harboring EGFR L858R/T790M mutant assessed as dead cells at 5 uM measured after 18 hrs by Annexin V-FITC/PI staining based flow cytometry analysis (Rvb= […]); type: functional
A549 [17] = assay: Induction of cell cycle arrest in human A549 cells harboring wild type EGFR assessed as accumulation of cells in G2/M phase at 5 uM measured after 18 hrs by PI/RNaseA staining based flow cytometry analysis (Rvb= 8.47%); type: functional
NCI-H1975 [18] = assay: Induction of apoptosis in human NCI-H1975 cells harboring EGFR L858R/T790M mutant assessed as late apoptotic cells at 0.5 uM measured after 18 hrs by Annexin V-FITC/PI staining based flow cytometry analysis (Rvb= 0.1%); type: functional
NCI-H460 = assay: Cytotoxicity against human NCI-H460 cells harboring wild type EGFR assessed as reduction in cell viability measured after 48 hrs by CCK8 assay; type: functional, cell-based; details: NCI-H460, 48 h
NCI-H1975 [19] = assay: Induction of apoptosis in human NCI-H1975 cells harboring EGFR L858R/T790M mutant assessed as late apoptotic cells at 5 uM measured after 18 hrs by Annexin V-FITC/PI staining based flow cytometry analysis (Rvb= 0.1%); type: functional
HCC827 [20] = assay: Induction of cell cycle arrest in human HCC827 cells harboring EGFR del E746-A750 mutant assessed as accumulation of cells in S phase at 1 uM measured after 18 hrs by PI/RNaseA staining based flow cytometry analysis (Rvb= 33.62%); type: functional
[21] = biological target: MAP kinase p38 (Homo sapiens) (UniProt O15264+Q15759+Q16539+P53778); assay: Inhibition of p38 MAPK phosphorylation at Thr180/Tyr182 residue in human HBE cells at 5 uM incubated for 2 hrs by immunoblotting analysis; type: cell-based
NCI-H1975 [22] = assay: Induction of apoptosis in human NCI-H1975 cells harboring EGFR L858R/T790M mutant assessed as early apoptotic cells at 5 uM measured after 18 hrs by Annexin V-FITC/PI staining based flow cytometry analysis (Rvb= […]); type: functional
A549 [23] = assay: Induction of cell cycle arrest in human A549 cells harboring wild type EGFR assessed as accumulation of cells in G0/G1 phase at 0.5 uM measured after 18 hrs by PI/RNaseA staining based flow cytometry analysis (Rvb= 58.27%); type: functional
A549 [24] = assay: Induction of cell cycle arrest in human A549 cells harboring wild type EGFR assessed as accumulation of cells in G0/G1 phase at 5 uM measured after 18 hrs by PI/RNaseA staining based flow cytometry analysis (Rvb= 58.27%); type: functional
NCI-H1975 [25] = assay: Induction of cell cycle arrest in human NCI-H1975 cells harboring EGFR L858R/T790M mutant assessed as accumulation of cells in S phase at 0.5 uM measured after 18 hrs by PI/RNaseA staining based flow cytometry analysis (Rvb= 39.78%); type: functional

Compound	Activity (A549 [1]) [%]	Activity (NCI-H1975 [2]) [%]	Activity (HCC827 [3]) [%]	Activity (NCI-H1975 [4]) [%]	Activity (A549 [5]) [%]	Activity (HCC827 [6]) [%]	Activity (NCI-H1975 [7]) [%]	Activity (NCI-H1975 [8]) [%]	Activity (NCI-H1975 [9]) [%]	Activity (HCC827 [10]) [%]	Activity (HCC827 [11]) [%]	Activity (HCC827 [12]) [%]	Activity (NCI-H1975 [13]) [%]	inhibition (HBE)	Activity (A549 [14]) [%]	Activity (HCC827 [15]) [%]	Activity (NCI-H1975 [16]) [%]	Activity (A549 [17]) [%]	Activity (NCI-H1975 [18]) [%]	IC50 (NCI-H460) [µM]	also measured
C=CC(=O)Nc1cccc(Oc2nc(Nc3ccc(N4CCN(C)CC4)c(F)c3)nc3[nH]ccc23)c1 [ABIVERTINIB]	10.15	11.7	9.53	18.87	28.99	80.34	86.3	17.05	9.5	15.36	18.3	21.6	1.5	inactive	14.85	63	2	7.55	1.2	6.02	Activity (NCI-H1975 [19]): 0.4%; Activity (HCC827 [20]): 15.37%; inhibition [21]: Active; Activity (NCI-H1975 [22]): 11.3%; Activity (A549 [23]): 59.82%; Activity (A549 [24]): 77.6%; Activity (NCI-H1975 [25]): 21.24%
C=CC(=O)Nc1cccc(Oc2nc(Nc3ccc(N4CCN(C)CC4)c([N+](=O)[O-])c3)nc3[nH]ccc23)c1	9.99	13.5	8.5	13.11	21.21	81.52	84.7	14.32	12.7	14.31	11.4	19.4	2	inactive	8.2	73.7	1.8	9.25	0.3	8.02	Activity (NCI-H1975 [19]): 0.3%; Activity (HCC827 [20]): 10.81%; inhibition [21]: Active; Activity (NCI-H1975 [22]): 13.2%; Activity (A549 [23]): 62.63%; Activity (A549 [24]): 82.55%; Activity (NCI-H1975 [25]): 20.79%
C=CC(=O)Nc1cccc(Oc2nc(Nc3ccc(N4CCN(C)CC4)c(N)c3)nc3[nH]ccc23)c1	10.49	16.1	10.04	19.24	26.07	78.12	81.9	16.64	16.4	15.39	12.5	16.6	2.5	inactive	6.86	74.3	2	8.09	0.3	26.7	Activity (NCI-H1975 [19]): 0.2%; Activity (HCC827 [20]): 20.39%; inhibition [21]: Active; Activity (NCI-H1975 [22]): 15.9%; Activity (A549 [23]): 60.45%; Activity (A549 [24]): 85.05%; Activity (NCI-H1975 [25]): 19.32%
